Test results reported in patent US9132138B2, “Method for the treatment of multiple sclerosis” (CASI Pharmaceuticals, Inc., priority 2012, dated 2015).

Assays:
T cells = assay: Immunoblotting of signaling proteins in whole cell lysates of stimulated T cells; type: cell-based, C57/BL6 mice
Experimental: (§1) FIG. 4A, purified T cells pre-treated with 2ME2 (50 μM) were stimulated with PMA/iono for the indicated times. Whole cell lysates were subjected to immunoblotting to detect the indicated proteins. FIG. 4B, nuclear lysates were analyzed by EMSA to detect DNA binding to NF-κB or AP-1. FP, free probe. FIG. 4C, purified T cells or B cells were pre-treated with vehicle (−) or 50 μM 2ME2 (+) and were stimulated with PMA/iono for 30 or 60 minutes (left), or with anti-CD3/28 or anti-IgM/CD40 for 24 hours (right). Nuclear fractions of lymphocytes were analyzed by immunoblotting to detect nuclear translocation of NFATc1. Lamin A, nuclear protein loading control. NS; non-specific band. For FIGS. 4A-4C, data are representative of at least two independent experiments. FIG. 4D, stably transfected NFAT and NF-κB Jurkat luciferase reporter cell lines were preincubated with 2ME2 for 30 minutes, and stimulated via crosslinking of anti-CD3/28 antibodies with goat anti-mouse antibodies (GaM). 5 hours later, secreted luciferase activity indicates relative transcriptional activity. Data is reported as normalized luciferase activity and is representative of 3 independent experiments.
Whole cell lysates of stimulated T cells were immunoblotted with Ab recognizing phospho-protein kinase B (AKT) (Ser473), phospho-JNK (Thr183/Tyr185, p46 and p54 Clone G9, antibody “2”), phospho-ERK (Thr202/Tyr204) or phospho-IκBα (Ser32) (NEB); phospho-JNK (Thr183/Tyr185, p54 pSAPK/JNK, clone G7, antibody “1”) or IκBα(C21) (Santa Cruz); β-tubulin (Millipore) or actin (Sigma). Infrared dye-labeled secondary Ab (anti-rabbit Alexa fluor 680, Invitrogen, and anti-mouse IR800, LICOR) were visualized with the Odyssey® scanner (LICOR).

purified CD4^+ T cells = assay: Proliferation of purified CD4+ T cells by 3H-thymidine incorporation; type: cell-based, C57/BL6 mice; settings: 24 hours or 48 hours post-stimulation
Experimental: FIGS. 2A-2E, show proliferation and activation of T cells are inhibited by 2ME2. FIG. 2A, CD4^+ T cells were pre-treated with the indicated concentrations of 2ME2 and stimulated with plate-bound anti-CD3/28 or PMA/iono. Proliferation was assayed 24 hours (left) or 48 hours (right) later by 3H-thymidine incorporation. FIG. 2B, CD4^+ and CD8^+ T cells were stimulated with anti-CD3/28 in the presence of increasing concentrations of 2ME2. CD25 expression was assessed at 6 hours or 24 hours post-stimulation by flow cytometry. FIG. 2C, Quantification of CD25 expression in purified CD4^+ T cells pre-treated with increasing concentrations of 2ME2, and stimulated with anti CD3/28 or PMA/iono for 6 or 24 hours. […] Viability was determined 24 hours or 48 hours post-stimulation by flow cytometry. […] Proliferation was determined 24 hours or 48 hours later by 3H-thymidine incorporation. […]
Purified CD4^+ T cells were stimulated with plate-bound anti-CD3 (clone 2C11, BD, 10 ng/ml) plus anti-CD28 (clone 37.51, BD, 100 ng/ml). […] CD25 and CD69 expression was determined by flow cytometry (FACSCanto II, BD) and analyzed using FloJo software (Treestar Inc). Proliferation was assessed by 3H-thymidine incorporation. Viability and upregulation of cell surface markers on activated T cells were assessed by flow cytometry using Annexin V and propridium iodide. […]

ERβ = ERβ (Homo sapiens, UniProt Q92731); settings: cited from earlier work
NFATc1 = NFATc1 nuclear translocation by immunoblotting of nuclear fractions; type: cell-based, C57/BL6 mice
Experimental: as §1
T or B cells pre-incubated with vehicle or 2ME2 (50 μM) were stimulated with PMA (10 ng/ml)+iono (50 ng/ml); plate-bound anti-CD3 (30 ng/ml)+anti-CD28 (100 ng/ml); or anti-IgM (1 μg/ml)+anti-CD40 (1 μg/ml). Nuclear extracts (5 μg protein) were immunoblotted with anti-NFATc1 (clone 7A6, Santa Cruz) and anti-Lamin A (clone H-102, Santa Cruz).

[1] = oral 2ME2, mice and humans; cited from earlier work
ERα = molecular target: T1, ERα (Homo sapiens, UniProt P03372); settings: cited from earlier work
T1 sequence (P03372 1-595): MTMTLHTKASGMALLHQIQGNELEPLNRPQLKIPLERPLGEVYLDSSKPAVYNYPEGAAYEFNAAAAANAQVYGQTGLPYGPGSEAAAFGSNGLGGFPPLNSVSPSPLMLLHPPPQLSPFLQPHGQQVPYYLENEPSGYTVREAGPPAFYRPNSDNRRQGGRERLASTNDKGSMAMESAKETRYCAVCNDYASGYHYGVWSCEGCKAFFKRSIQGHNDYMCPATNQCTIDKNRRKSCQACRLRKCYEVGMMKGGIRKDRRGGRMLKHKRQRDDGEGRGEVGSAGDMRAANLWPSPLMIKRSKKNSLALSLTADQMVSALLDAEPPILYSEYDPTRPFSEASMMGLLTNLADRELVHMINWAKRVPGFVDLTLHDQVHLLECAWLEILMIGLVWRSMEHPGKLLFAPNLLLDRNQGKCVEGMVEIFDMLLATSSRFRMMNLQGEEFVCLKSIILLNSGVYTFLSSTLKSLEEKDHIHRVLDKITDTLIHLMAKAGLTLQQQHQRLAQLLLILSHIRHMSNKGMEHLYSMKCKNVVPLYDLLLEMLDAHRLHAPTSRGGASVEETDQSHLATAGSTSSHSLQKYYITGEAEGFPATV

[2] = T cells activated with anti-CD3/28

Chain of ERβ (Q92731 whole entry, species assumed): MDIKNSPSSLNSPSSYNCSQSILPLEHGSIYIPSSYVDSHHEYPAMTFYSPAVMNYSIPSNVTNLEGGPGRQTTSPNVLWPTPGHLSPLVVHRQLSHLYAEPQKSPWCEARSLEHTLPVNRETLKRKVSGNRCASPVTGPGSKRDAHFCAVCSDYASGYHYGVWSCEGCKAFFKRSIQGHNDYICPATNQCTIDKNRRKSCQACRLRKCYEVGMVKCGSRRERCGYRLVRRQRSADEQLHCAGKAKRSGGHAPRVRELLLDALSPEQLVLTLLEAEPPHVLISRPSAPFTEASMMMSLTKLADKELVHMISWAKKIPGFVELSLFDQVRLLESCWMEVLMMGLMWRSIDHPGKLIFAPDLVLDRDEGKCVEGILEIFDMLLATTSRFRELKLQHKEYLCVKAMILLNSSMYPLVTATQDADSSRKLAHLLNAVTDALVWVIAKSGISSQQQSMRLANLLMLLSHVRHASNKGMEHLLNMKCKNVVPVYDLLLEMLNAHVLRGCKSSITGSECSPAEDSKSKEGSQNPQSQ

## COc1cc2c(cc1O)CC[C@@H]1[C@@H]2CC[C@]2(C)[C@@H](O)CC[C@@H]12 [2ME2, 2-Methoxyestradiol]
T cells; 2ME2 50 μM, PMA/iono
  AKT phosphorylation: did not inhibit
  ERK phosphorylation: did not inhibit
  IκBα phosphorylation and degradation: normal
T cells; 2ME2 50 μM, present even in the absence of stimulation
  phosphorylation of JNK 1 and 2: modest hyper-phosphorylation
T cells; [2]
  ERK phosphorylation: did not inhibit
  JNK phosphorylation: did not inhibit
  NF-κB p65 phosphorylation: did not inhibit
Purified CD4^+ T cells
  anti-CD3/28 or PMA+iono-dependent proliferation: dose-dependent inhibition
ERβ
  lower affinity than estradiol for ERβ: 3200 fold
NFATc1; 50 μM 2ME2, 30-60 minutes after PMA/iono stimulation
  NFATc1 in the nuclear fraction of T cells: reduce the amount of NFATc1 present in the nuclear fraction
NFATc1; 50 μM 2ME2, 24 hours after anti-CD3/28 stimulation
  NFATc1 in the nuclear fraction of T cells: reduce the amount of NFATc1 present in the nuclear fraction
NFATc1; 50 μM 2ME2, 24 hours after anti-IgM/CD40-stimulation
  NFATc1 in the nuclear fraction of B cells: reduce the amount of NFATc1 present in the nuclear fraction
[1]
  bioavailability: 1.5%
ERα
  lower affinity than estradiol for ERα: 500 fold
